Assay results reported in US10351871B2, “Desaturases and methods of using them for synthesis of polyunsaturated fatty acids” (Washington State University, priority 1998, dated 2019).

Columns and labels:
[1] = biological target: T1, Euglena Δ^8-desaturase (EFD1) (Euglena gracilis, UniProt Q9SWQ9); format: cell-based; details: for desaturated share of the total incorporated 20-carbon fatty acid: S. cerevisiae with pYES2-541, 2% galactose, 0.2 mM fatty acid soap, overnight at 28° C.; for substrate preference over 20:1: EFD1 expressed in yeast; for desaturation of Δ^5 and Δ^6 substrates by EFD1 (in words): S. cerevisiae with pYES2-541, medium supplemented with the fatty acid
T1 construct: The resulting yeast expression construct containing the open reading frame under the control of a galactose-inducible promoter was designated pYES2-541; expressed in transfected cells; host or cells: Saccharomyces cerevisiae INVSc1, plasmid pYES2-541 (GAL1 promoter)
From the text: For E. gracilis, the cloned Δ^8 gene was transferred to the yeast expression vector pYES2 (Invitrogen, Carlsbad, Calif.) by standard cloning techniques (Ausubel, Current Protocols In Molecular Biology, 1988) using enzymes obtained from New England Biolabs, Beverly, Mass. The resulting yeast expression construct containing the open reading frame under the control of a galactose-inducible promoter was designated pYES2-541.
Saccharomyces cerevisiae strain INVSc1 (Invitrogen) was transformed with pYES2-541 and cultured using standard methods (Ausubel, Current Protocols In Molecular Biology, 1988). Liquid medium containing 2% galactose was supplemented with fatty acid soaps (NuCheck Prep, Elysian Minn.) at a final concentration of 0.2 mM. Tergitol (1%, NP40) was added to the yeast cultures to enhance fatty acid uptake (Stukey et al., J. Biol. Chem. 264:16537-16544, 1989), except for cultures containing 20:1, where 5% DMSO was substituted. Yeast were incubated overnight at 28° C., harvested by centrifugation, washed once with 1% Tergitol, once with 0.5% Tergitol, and finally once with distilled water.
(§1) Extraction of lipids and preparation of fatty acid methyl esters was carried out by standard methods (Miguel and Browse, J. Biol. Chem. 267:1502-1509, 1992). Gas chromatography of the methyl esters was conducted by established methods (Spychalla et al., Proc. Natl. Acad. Sci. USA 94:1142-1147, 1997). Fatty acid 4,4-Dimethyloxazoline (DMOX) derivatives of yeast lipid extracts were prepared by standard methods (Fay and Richli, J. Chromatogr. 541:89-98, 1991). GC-mass spectrometry was conducted on a Hewlett-Packard 6890 series GC-MS fitted with a 30 m×[…] HPSMS column, operating at an ionization voltage of 70 eV with a scan range of 50-550 Da. Fatty acids and their derivatives were identified where possible by comparison with authentic standards (NuCheck Prep).
To confirm the activity of the enzyme, the EFD1 cDNA was transferred from pJW541 to yeast expression vector pYES2 under the control of a galactose-inducible promoter. The resulting construct, pYES2-541, was introduced into S. cerevisiae. […] Accordingly, yeast cultures were supplemented with various fatty acid soaps, using a yeast strain containing the empty vector as control, and analyzed the fatty acids of the cultures by methyl-ester derivatization and gas chromatography.

[2] = biological target: T2, C. elegans Δ^6-desaturase (FAT-3) (Caenorhabditis elegans, UniProt Q23221); assay: C. elegans FAT-3 expressed in yeast (pMK195, ADH promoter), substrate desaturation; format: cell-based; details: yeast expressing fat-3 from pMK195
T2 construct: Codons for amino acid residues 38-67 of W08D2.4 were not present in the cDNA; expressed in transfected cells; host or cells: yeast (Saccharomyces cerevisiae), vector pMK195, constitutive ADH promoter
T2 sequence (Q23221 1-443): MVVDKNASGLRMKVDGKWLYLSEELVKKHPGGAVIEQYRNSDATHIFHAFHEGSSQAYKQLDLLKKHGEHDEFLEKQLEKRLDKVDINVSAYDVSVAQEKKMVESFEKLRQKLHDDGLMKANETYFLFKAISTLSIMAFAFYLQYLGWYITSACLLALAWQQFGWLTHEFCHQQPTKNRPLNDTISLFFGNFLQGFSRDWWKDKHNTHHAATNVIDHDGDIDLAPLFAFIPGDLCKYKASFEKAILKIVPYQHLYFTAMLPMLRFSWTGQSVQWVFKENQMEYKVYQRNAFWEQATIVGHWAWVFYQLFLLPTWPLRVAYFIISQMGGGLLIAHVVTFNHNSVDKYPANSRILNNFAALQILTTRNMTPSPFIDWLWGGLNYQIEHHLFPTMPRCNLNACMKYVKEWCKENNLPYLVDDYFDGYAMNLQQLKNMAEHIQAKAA
From the text: The fat-3 gene was expressed in the yeast expression vector pMK195 containing the constitutive ADH promoter.

Δ^5- and Δ^8-desaturases = assay: Yeast cell transformed with both Δ^5- and Δ^8-desaturase genes (pYFAT4 + pYX232-541) fed fatty acid substrates, GC; format: cell-based, Saccharomyces cerevisiae; details: for One added desaturation / Unconverted substrate: overnight culture at 28° C.; for Doubly desaturated product: products 20:5 (5, 8, 11, 14, 17), 20:4 (5, 8, 11, 14), 20:3 (5, 8, 11)
From the text: The cDNA portion of pJW541 (Wallis and Browse, Arch. Biochem. Biophys. 365:307-316, 1999) containing the Euglena Δ^8-desaturase was excised from that plasmid with the restriction enzymes EcoRI and SpeI. The purified DNA fragment representing the insert was ligated into the yeast expression vector pYX232 (R&D Systems, Inc.) that had been prepared by digestion with EcoRI and NheI, to give compatible sticky ends. (Plasmid pYX232 carries the marker conferring yeast prototrophy for tryptophan (TRP1 mutation), and uses the triose phosphate isomerase (TPI) promoter for constitutive expression of the inserted DNA.) The resulting plasmid, pYX232-541, was introduced into the Saccharomyces cerevisiae strain already harboring the Δ^5-desaturase (pYFAT4; Watts and Browse, Arch. Biochem. Biophys. 362:175-182, 1999) plasmid that confers yeast prototrophy for uracil using a lithium acetate transformation procedure (Invitrogen). Transformants were selected simultaneously for uracil and tryptophan prototrophy. Selected colonies arising after the transformation were inoculated into yeast minimal medium that also lacked both uracil and tryptophan.
For analysis of activity, separate cultures were supplemented with one of three fatty acid substrates provided as sodium salts as described (Wallis and Browse, Arch. Biochem. Biophys. 365:307-316, 1999). After overnight culture at 28° C., the cultures were harvested by centrifugation and washed. Fatty acid methyl esters were prepared using the standard methods described in Miguel and Browse J. Biol. Chem. 267:1502-1509, 1992.

[3] = biological target: T3, C. elegans Δ^5-desaturase (FAT-4) (Caenorhabditis elegans, UniProt G5EG11); assay: C. elegans FAT-4 (pYES2, fat-4) expressed in yeast fed fatty acid substrates, GC analysis; format: cell-based; details: for activity of FAT-4 on substrate (in words): yeast expressing FAT-4, substrate fed; for substrate converted to desaturation product: yeast expressing FAT-4, 2% galactose, 0.2 mM fatty acid, 16 hours, 18:1 is endogenous; for amount desaturated relative to conventional substrate 20:3Δ^8,11,14: yeast expressing the C. elegans Δ^5-desaturase gene
T3 construct: The resulting peptide length was 447 amino acids instead of the previously predicted 454 amino acids; expressed in transfected cells; host or cells: Saccharomyces cerevisiae INVSc1, plasmid pYFAT4 (pYES2, GAL1 promoter)
T3 sequence (G5EG11 1-447): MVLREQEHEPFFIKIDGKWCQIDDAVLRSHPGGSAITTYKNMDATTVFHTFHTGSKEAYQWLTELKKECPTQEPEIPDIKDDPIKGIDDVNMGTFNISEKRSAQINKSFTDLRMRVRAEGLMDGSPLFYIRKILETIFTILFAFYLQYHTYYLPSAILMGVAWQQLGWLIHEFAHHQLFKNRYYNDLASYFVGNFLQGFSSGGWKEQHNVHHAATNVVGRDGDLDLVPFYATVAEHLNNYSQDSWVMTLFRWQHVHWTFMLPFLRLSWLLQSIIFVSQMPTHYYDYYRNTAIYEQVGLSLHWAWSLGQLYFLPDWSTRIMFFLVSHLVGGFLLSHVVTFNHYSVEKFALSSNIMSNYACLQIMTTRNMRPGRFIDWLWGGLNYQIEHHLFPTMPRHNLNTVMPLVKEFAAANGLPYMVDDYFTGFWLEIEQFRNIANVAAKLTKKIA
Experimental: To express the C. elegans Δ^5-desaturase, the fat-4 cDNA amplification product (see Example 3) was digested with HindIII and BamH1 and ligated to the yeast expression vector pYES2 (Invitrogen) cut with HindIII and BamH1. The resulting plasmid was named pYFAT4.
For the C. elegans Δ^5 gene, the constructs were transformed into Saccharomyces cerevisiae strain INVSc1 using the S.c. EasyComp transformation kit (Invitrogen). For experiments with the FAT-4 peptide, transformed yeast were grown overnight in uracil-deficient media containing 2% galactose, 0.2 mM fatty acid, and 1% NP-40.
as §1
To determine the enzymatic activity of the FAT-4 desaturase-like protein, the protein was expressed in Saccharomyces cerevisiae supplemented with polyunsaturated fatty acid substrates that are not normally present in this yeast. The FAT-4 protein was expressed in the yeast expression vector pYES2 from the GAL1 promoter by growing the cells in the presence of galactose and various fatty acids. After 16 hours of growth, the cells were analyzed for total fatty acid composition by gas chromatography (GC).

[4] = biological target: T4, Δ^5-desaturase activity in microsomal extracts of mammalian liver (Rattus norvegicus, UniProt Q920R3); details: labeled substrate; cited from earlier work
T4 construct: the rates of desaturation in microsomal extracts of mammalian liver; host or cells: microsomal extracts of mammalian liver

Δ^5-desaturase = biological target: T5, Δ^5-desaturase (Caenorhabditis elegans, UniProt G5EG11); assay: Arabidopsis plants doubly transformed with both desaturases, seed fatty acid methyl ester analysis; format: in vivo; details: seed from plants doubly transformed with both desaturases
T5 construct: expressed in transfected cells; host or cells: Arabidopsis plants (seed) doubly transformed with Δ8 and Δ5 constructs
T5 sequence (G5EG11 1-447): T3 sequence (G5EG11 1-447)
From the text: For example, the expression of the Δ^5- and Δ^8-desaturases in a plant, such as Arabidopsis, can be achieved by constructing a plant transformation vector to introduce the cDNA of each desaturase into the plant. The vector can contain a tissue specific promoter so that the desaturase protein will be expressed during seed development. Examples of seed specific promoters include that for phaseolin (van der Geest and Hall, Plant Mol. Biol. 32:579-88, 1996) or the promoter for napin (Stalberg et al., Plant Mol. Biol. 23: 671-83, 1993). Other seed-specific promoters that can be used are those located on the genomic BAC clone T24A18 (LOCUS ATT24A18. (1999) 45980 bp Arabidopsis thaliana DNA chromosome 4, ACCESSION # AL035680, NID g4490701) of the Arabidopsis genome. […] Transformation of Arabidopsis is readily achieved using the Agrobacterium-mediated vacuum infiltration process (Katavic et al., Mol. Gen. Genet. 245:363-70, 1994) or the floral dip modification of it (Clough and Bent, Plant J. 16:735-43, 1998), although several other methods are also commonly used. […] Since the Δ^8 and Δ^5 constructs use different selectable markers the double transformants are readily isolated. […] The seeds of transformed plants are analyzed by isolation of fatty acid methyl esters followed by gas chromatography to determine the fatty acid composition.

T1 sequence (Q9SWQ9 other isoform, or with tags, fused parts or gaps with the stated changes): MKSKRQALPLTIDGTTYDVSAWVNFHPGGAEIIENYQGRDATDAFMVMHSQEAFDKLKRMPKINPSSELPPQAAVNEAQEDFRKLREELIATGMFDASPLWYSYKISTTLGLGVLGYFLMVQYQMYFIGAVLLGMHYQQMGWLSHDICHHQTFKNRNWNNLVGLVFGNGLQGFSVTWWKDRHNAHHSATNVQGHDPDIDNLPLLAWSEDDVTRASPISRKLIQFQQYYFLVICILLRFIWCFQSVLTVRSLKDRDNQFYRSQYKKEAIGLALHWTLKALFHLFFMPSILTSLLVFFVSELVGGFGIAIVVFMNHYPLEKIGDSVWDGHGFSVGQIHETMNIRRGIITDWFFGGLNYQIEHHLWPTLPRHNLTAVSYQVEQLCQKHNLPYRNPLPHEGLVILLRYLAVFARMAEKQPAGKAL
T4 sequence (Q920R3 whole entry, stated change not applied): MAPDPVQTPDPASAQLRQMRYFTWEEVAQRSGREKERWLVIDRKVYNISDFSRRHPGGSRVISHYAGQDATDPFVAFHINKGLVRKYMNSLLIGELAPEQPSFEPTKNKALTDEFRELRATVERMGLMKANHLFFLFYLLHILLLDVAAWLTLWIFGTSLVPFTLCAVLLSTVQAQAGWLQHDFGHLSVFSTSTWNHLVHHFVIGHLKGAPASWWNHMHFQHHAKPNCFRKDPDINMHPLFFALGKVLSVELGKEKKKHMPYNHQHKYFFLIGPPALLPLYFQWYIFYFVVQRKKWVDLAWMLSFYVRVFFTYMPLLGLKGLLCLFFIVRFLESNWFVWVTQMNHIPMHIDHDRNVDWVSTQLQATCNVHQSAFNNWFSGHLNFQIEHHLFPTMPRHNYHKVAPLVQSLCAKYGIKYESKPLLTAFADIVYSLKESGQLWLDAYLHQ

| Structure (SMILES) | desaturated share of the total incorporated 20-carbon fatty acid [1] | activity of FAT-3 on substrate (in words) [2] | One added desaturation (Δ^5- and Δ^8-desaturases) | Unconverted substrate (Δ^5- and Δ^8-desaturases) | Doubly desaturated product (Δ^5- and Δ^8-desaturases) | activity of FAT-4 on substrate (in words) [3] | substrate converted to desaturation product [3] | also measured |
| --- | --- | --- | --- | --- | --- | --- | --- | --- |
| CCCCCCCCC=CCCCCCCCCCC(=O)O [20:1Δ^11] | 32% | no activity | 18 mass percent of incorporated 20-carbon fatty acids | 72 mass percent of incorporated 20-carbon fatty acids | 11 mass percent of incorporated 20-carbon fatty acids | No novel peaks were detected |  |  |
| CCCCCC=CCC=CCCCCCCCCCC(=O)O [20:2Δ^11,14] | 73% | no activity | 18 mass percent of incorporated 20-carbon fatty acids | 70 mass percent of incorporated 20-carbon fatty acids | 13 mass percent of incorporated 20-carbon fatty acids |  | 27% | substrate preference over 20:1 [1]: greater than two-fold preference; rate of conversion to 20:3Δ^5,11,14 relative to rate of conversion of labeled 20:3Δ^8,11,14 to 20:4Δ^5,8,11,14 [4]: 41%; amount desaturated relative to conventional substrate 20:3Δ^8,11,14 [3]: less than half |
| CCC=CCC=CCC=CCCCCCCCCCC(=O)O [20:3Δ^11,14,17] | 70% | no activity | 17 mass percent of incorporated 20-carbon fatty acids | 71 mass percent of incorporated 20-carbon fatty acids | 11 mass percent of incorporated 20-carbon fatty acids |  | 26% | substrate preference over 20:1 [1]: greater than two-fold preference; amount desaturated relative to conventional substrate 20:3Δ^8,11,14 [3]: less than half |
| CCCCCCCCC=CCC=CCCCCCCC(=O)O [20:Δ^8,11] |  |  |  |  |  |  |  | conversion to 20:3Δ^5,8,11 in seed (Δ^5-desaturase): convert |
| CCCCC/C=C\C/C=C\C/C=C\CCCCCCC(=O)O [di-homo-γ-linolenic acid] |  | no activity |  |  |  |  | 55% |  |
| CCCCC/C=C\C/C=C\CCCCCCCC(=O)O [linoleic acid] |  | able to desaturate |  |  |  | no activity |  | desaturation of Δ^5 and Δ^6 substrates by EFD1 (in words) [1]: no desaturation occurred |
| CC/C=C\C/C=C\C/C=C\CCCCCCCC(=O)O [α-linolenic acid] |  | capable of desaturating |  |  |  |  |  | desaturation of Δ^5 and Δ^6 substrates by EFD1 (in words) [1]: no desaturation occurred |
| CCCCC/C=C\C/C=C\C/C=C\CCCCC(=O)O [γ-linolenic acid] |  |  |  |  |  | no activity |  |  |
